# Source: US9023882B2, “5-membered nitrogen containing heterocyclic derivatives and pharmaceutical compositions comprising the same” (Kissei Pharmaceutical Co., Ltd., priority 2007, dated 2015)
# Biological target: Xanthine oxidase (from bovine milk, Sigma) (Bos taurus (Bovine), UniProt P80457)
# Assay: Xanthine oxidase inhibitory activity
# Format: biochemical
# Conditions: absorbance at 290 nm
# Procedure: (1) Preparation of Test Compounds
# Test compounds were dissolved in DMSO (Wako) at 40 mM concentration and then diluted to intended concentrations with phosphate-buffered saline (PBS).
# (2) Method for Measurement
# Xanthine oxidase (from bovine milk, Sigma) was prepared with phosphate-buffered saline (PBS) at 0.02 units/mL, and then the solution was added to 96 well plates at 50 μL/well. In addition, test compounds diluted with PBS were added at 50 μL/well. Xanthine (Wako) at 200 μM prepared with PBS was added at 100 μL/well, and the reaction was conducted for 10 minutes at room temperature. Absorbance at 290 nm was measured using a microplate reader SpectraMax Plus 384 (Molecular device). The absorbance under a condition without xanthine is 0%, and control without test compounds is 100%. Fifty % inhibitory concentration of a test compound (IC50) was calculated (Tables 91 to 92). Ex. No in the table indicates Example number.
# [1] = 0.02 units/mL, xanthine 200 μM, 10 minutes at room temperature
# Sequence of Xanthine oxidase (from bovine milk, Sigma) (P80457 whole entry): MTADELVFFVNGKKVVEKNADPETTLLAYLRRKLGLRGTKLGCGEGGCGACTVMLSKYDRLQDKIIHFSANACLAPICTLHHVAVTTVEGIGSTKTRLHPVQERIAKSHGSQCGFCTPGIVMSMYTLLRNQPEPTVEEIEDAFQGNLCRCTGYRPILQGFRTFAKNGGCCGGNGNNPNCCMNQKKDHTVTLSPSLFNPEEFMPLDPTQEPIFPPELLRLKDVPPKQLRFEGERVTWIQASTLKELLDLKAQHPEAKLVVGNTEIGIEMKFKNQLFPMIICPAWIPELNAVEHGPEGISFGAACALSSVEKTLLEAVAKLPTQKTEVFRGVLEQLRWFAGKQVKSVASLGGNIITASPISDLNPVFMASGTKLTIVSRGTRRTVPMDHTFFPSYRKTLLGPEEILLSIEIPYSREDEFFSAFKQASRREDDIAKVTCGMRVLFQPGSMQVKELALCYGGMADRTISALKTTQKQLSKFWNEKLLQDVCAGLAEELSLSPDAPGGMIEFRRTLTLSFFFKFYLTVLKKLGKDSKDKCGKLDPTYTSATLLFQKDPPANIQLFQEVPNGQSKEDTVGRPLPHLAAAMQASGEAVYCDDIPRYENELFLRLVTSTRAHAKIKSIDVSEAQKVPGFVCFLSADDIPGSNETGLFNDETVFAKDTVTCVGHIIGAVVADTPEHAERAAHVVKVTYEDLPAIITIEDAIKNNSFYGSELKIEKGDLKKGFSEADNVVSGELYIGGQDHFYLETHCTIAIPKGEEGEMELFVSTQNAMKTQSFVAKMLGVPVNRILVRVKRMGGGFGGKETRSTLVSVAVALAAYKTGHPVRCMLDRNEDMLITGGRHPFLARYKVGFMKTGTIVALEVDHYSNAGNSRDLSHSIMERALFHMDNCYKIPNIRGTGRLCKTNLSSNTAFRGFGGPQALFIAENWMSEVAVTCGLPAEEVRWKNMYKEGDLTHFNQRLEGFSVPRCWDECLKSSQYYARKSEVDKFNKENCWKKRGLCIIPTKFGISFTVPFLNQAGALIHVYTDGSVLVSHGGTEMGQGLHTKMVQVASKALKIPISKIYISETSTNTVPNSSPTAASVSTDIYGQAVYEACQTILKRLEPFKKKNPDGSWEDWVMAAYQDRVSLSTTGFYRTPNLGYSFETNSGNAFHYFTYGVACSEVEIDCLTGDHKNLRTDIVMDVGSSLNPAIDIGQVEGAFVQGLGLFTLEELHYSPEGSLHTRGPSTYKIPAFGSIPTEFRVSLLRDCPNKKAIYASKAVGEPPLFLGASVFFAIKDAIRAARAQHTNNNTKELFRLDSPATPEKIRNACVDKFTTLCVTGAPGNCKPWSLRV
SMILES,IC50 [1],IC50 (100 μM xanthine final)
N#Cc1cn(-c2ccc(C(=O)O)cc2)cc1C(=O)N1CCCCC1 [Example 231],7 nM,
N#Cc1cn(-c2ccc(C(=O)O)cc2)cc1C(=O)N1CCOCC1 [Example 232],26.9 nM,
CC(C)COc1cn(-c2ccc(C(=O)O)cc2)cc1C#N [Example 233],2.3 nM,
COCCOc1cn(-c2ccc(C(=O)O)cc2)cc1C#N [Example 234],4 nM,
N#Cc1cn(-c2ccc(C(=O)O)cc2)cc1Cc1ccccc1 [Example 235],8.6 nM,
Cc1cn(-c2ccc(C(=O)O)cc2)cc1C#N [Example 236],81.2 nM,
CCCc1cn(-c2ccc(C(=O)O)cc2)cc1C#N [Example 238],3.6 nM,
CCCc1c(C#N)cn(-c2ccc(C(=O)O)cc2)c1C [Example 239],15 nM,
CCCCc1cn(-c2ccc(C(=O)O)cc2)cc1C#N [Example 240],3.3 nM,
CC(C)Cc1cn(-c2ccc(C(=O)O)cc2)cc1C#N [Example 241],3.6 nM,
Cc1c(CC(C)C)c(C#N)cn1-c1ccc(C(=O)O)cc1 [Example 242],9 nM,
N#Cc1cn(-c2ccc(C(=O)O)cc2)cc1-c1ccco1 [Example 244],3.6 nM,
CCCCCc1cn(-c2ccc(C(=O)O)cc2)cc1C#N [Example 245],2.8 nM,
CCCCCCc1cn(-c2ccc(C(=O)O)cc2)cc1C#N [Example 246],8.9 nM,
CCCCCCCc1cn(-c2ccc(C(=O)O)cc2)cc1C#N [Example 247],8.9 nM,
N#Cc1cn(-c2ccc(C(=O)O)cc2)cc1COCc1ccccc1 [Example 248],11.9 nM,
N#Cc1nn(-c2ccc(C(=O)O)cc2)cc1-c1ccc2c(c1)OCO2 [Example 249],9.4 nM,
N#Cc1cn(-c2ccc(C(=O)O)cc2)cc1-c1ccc2ccccc2c1 [Example 250],25.6 nM,
Cn1cc(-c2cn(-c3ccc(C(=O)O)cc3)cc2C#N)c2ccccc21 [Example 251],23 nM,

SMILES,IC50 [1],IC50 (100 μM xanthine final)
CC(C)n1cc(-c2cn(-c3ccc(C(=O)O)cc3)cc2C#N)c2ccccc21 [Example 252],33.2 nM,
N#Cc1cn(-c2ccc(C(=O)O)cc2)cc1-c1csc2ccccc12 [Example 253],5.4 nM,
N#Cc1cn(-c2ccc(C(=O)O)cc2)cc1-c1cccc2c1OC(F)(F)O2 [Example 254],6.9 nM,
N#Cc1cn(-c2ccc(C(=O)O)cc2)cc1-c1cccn1-c1ccccc1 [Example 255],10.1 nM,
N#Cc1cn(-c2ccc(C(=O)O)cc2)cc1-c1cccn1Cc1ccccc1 [Example 256],15.2 nM,
CCOc1cn(-c2ccc(C(=O)O)cc2)cc1C#N [Example 257],4.1 nM,
N#Cc1cn(-c2ccc(C(=O)O)cc2)cc1CCc1ccco1 [Example 258],3.9 nM,
N#Cc1cn(-c2ccc(C(=O)O)cc2)cc1CCC1CCCO1 (centres unmarked) [Example 259],4.7 nM,
CN(C)/C=N/c1nn(-c2ccc(C(=O)O)cc2)cc1C#N [Example 261],5.3 nM,
N#Cc1cn(-c2ccc(C(=O)O)cc2)nc1NC(=O)c1ccccc1 [Example 262],3.1 nM,
N#Cc1cn(-c2ccc(C(=O)O)cc2)nc1NC(=O)Cc1ccccc1 [Example 263],4.6 nM,
N#Cc1cn(-c2ccc(C(=O)O)c(O)c2)cc1-c1cccc(F)c1 [Example 265],7.3 nM,
COc1ccc(-c2cn(-c3ccc(C(=O)O)c(O)c3)cc2C#N)c(OC)c1 [Example 266],10.4 nM,
N#Cc1cn(-c2ccc(C(=O)O)c(O)c2)cc1-c1ccc(F)cc1F [Example 267],11.6 nM,
COc1ccc(-c2cn(-c3ccc(C(=O)O)c(O)c3)cc2C#N)cc1F [Example 268],13.3 nM,
Cc1ccc(-c2cn(-c3ccc(C(=O)O)c(O)c3)cc2C#N)cc1F [Example 269],23.4 nM,
N#Cc1cn(-c2ccc(C(=O)O)c(O)c2)cc1-c1cccc(F)c1F [Example 270],24.2 nM,
N#Cc1cn(-c2ccc(C(=O)O)c(O)c2)cc1-c1cc(F)cc(F)c1 [Example 271],15.1 nM,
Cc1cccc(C)c1-c1cn(-c2ccc(C(=O)O)c(O)c2)cc1C#N [Example 272],10.1 nM,

SMILES,IC50 [1],IC50 (100 μM xanthine final)
Cc1ccc(-c2cn(-c3ccc(C(=O)O)c(O)c3)cc2C#N)c(C)c1 [Example 273],14.6 nM,
N#Cc1cn(-c2ccc(C(=O)O)c(O)c2)cc1-c1c(F)cccc1F [Example 274],5 nM,
Cc1c(F)cccc1-c1cn(-c2ccc(C(=O)O)c(O)c2)cc1C#N [Example 275],7.2 nM,
COc1ccc(-c2cn(-c3ccc(C(=O)O)c(O)c3)cc2C#N)c(C)c1 [Example 276],,7.7 nM
N#Cc1cn(-c2ccc(C(=O)O)c(O)c2)cc1-c1cc(F)ccc1F [Example 277],,10.1 nM
N#Cc1cn(-c2ccc(C(=O)O)c(O)c2)cc1-c1cccc(Cl)c1 [Example 278],,49.1 nM
COc1cccc(-c2cn(-c3ccc(C(=O)O)c(O)c3)cc2C#N)c1 [Example 279],,8.4 nM
Cc1cccc(-c2cn(-c3ccc(C(=O)O)c(O)c3)cc2C#N)c1 [Example 280],,15.6 nM
N#Cc1cn(-c2ccc(C(=O)O)c(O)c2)cc1-c1cccc(C(F)(F)F)c1 [Example 281],,41.2 nM
COc1cn(-c2ccc(C(=O)O)c(O)c2)cc1C#N [Example 282],,5.3 nM
COc1ccc(-c2cn(-c3ccc(C(=O)O)c(O)c3)cc2C#N)c(F)c1 [Example 283],,6.2 nM
COc1ccc(F)c(-c2cn(-c3ccc(C(=O)O)c(O)c3)cc2C#N)c1 [Example 284],,9.3 nM
COc1ccc(-c2cn(-c3ccc(C(=O)O)c(O)c3)cc2C#N)cc1OC [Example 285],,3.9 nM
COc1ccc2ccccc2c1-c1cn(-c2ccc(C(=O)O)c(O)c2)cc1C#N [Example 286],,27.5 nM
N#Cc1cn(-c2ccc(C(=O)O)c(O)c2)cc1CCc1ccccc1 [Example 287],,5.8 nM
N#Cc1cn(-c2ccc(C(=O)O)c(O)c2)cc1/C=C/c1ccccc1 [Example 288],,10.4 nM
N#Cc1cn(-c2ccc(C(=O)O)c(O)c2)cc1-c1cc2ccccc2s1 [Example 289],,22.6 nM
N#Cc1cn(-c2ccc(C(=O)O)c(O)c2)cc1-c1cc2ccccc2o1 [Example 290],,27.6 nM
N#Cc1cn(-c2ccc(C(=O)O)c(O)c2)cc1-c1csc2ccccc12 [Example 291],,6.4 nM

# The remaining lines, values ahead:
IC50 [1],IC50 (100 μM xanthine final),SMILES
,5.2 nM,Cn1cc(-c2cn(-c3ccc(C(=O)O)c(O)c3)cc2C#N)c2ccccc21 [Example 292]
,15.9 nM,COc1ccccc1/C=C/c1cn(-c2ccc(C(=O)O)c(O)c2)cc1C#N [Example 293]
,11.2 nM,COc1ccccc1CCc1cn(-c2ccc(C(=O)O)c(O)c2)cc1C#N [Example 294]
,28.8 nM,COc1ccc(/C=C/c2cn(-c3ccc(C(=O)O)c(O)c3)cc2C#N)cc1 [Example 295]
,5.6 nM,COc1ccc(CCc2cn(-c3ccc(C(=O)O)c(O)c3)cc2C#N)cc1 [Example 296]
,18.9 nM,O=C(O)c1ccc(-n2cc(C(=O)O)c(C(F)(F)F)c2)cc1O [Example 297]
,6.6 nM,CCOC(=O)c1cn(-c2ccc(C(=O)O)c(O)c2)cc1C(F)(F)F [Example 298]
,7.9 nM,N#Cc1cn(-c2ccc(C(=O)O)c(O)c2)cc1C(=O)O [Example 299]
,7.9 nM,N#Cc1cn(-c2ccc(C(=O)O)c(O)c2)cc1C(F)(F)F [Example 300]
,4.9 nM,N#Cc1cn(-c2ccc(C(=O)O)c(O)c2)nc1-c1ccccc1 [Example 302]
,49.4 nM,N#Cc1cn(-c2ccc(C(=O)O)c(O)c2)cc1-c1ccccc1Oc1ccccc1 [Example 303]
,15.1 nM,N#Cc1cn(-c2ccc(C(=O)O)c(O)c2)cc1-c1cccn1-c1ccccc1 [Example 304]
,7.3 nM,N#Cc1cn(-c2ccc(C(=O)O)c(O)c2)cc1-c1ccc2c(c1)OCCO2 [Example 305]
,7.5 nM,Cc1ccccc1-c1cn(-c2ccc(C(=O)O)c(O)c2)cc1C#N [Example 307]
,7.5 nM,N#Cc1cn(-c2ccc(C(=O)O)c(O)c2)cc1-c1ccccc1Cl [Example 308]
,6.5 nM,COc1ccccc1-c1cn(-c2ccc(C(=O)O)c(O)c2)cc1C#N [Example 309]
,17.5 nM,Cc1ccc(-c2cn(-c3ccc(C(=O)O)c(O)c3)cc2C#N)s1 [Example 310]
,6.9 nM,Cc1ccsc1-c1cn(-c2ccc(C(=O)O)c(O)c2)cc1C#N [Example 311]
,9.9 nM,N#Cc1cn(-c2ccc(C(=O)O)c(O)c2)cc1-c1ccccc1C(F)(F)F [Example 312]
,5.2 nM,N#Cc1cn(-c2ccc(C(=O)O)c(O)c2)cc1-c1ccc(Cl)s1 [Example 313]
,14.6 nM,N#Cc1cn(-c2ccc(C(=O)O)c(O)c2)cc1-c1ccc(Cl)cc1 [Example 315]
,9 nM,COc1ccc(-c2cn(-c3ccc(C(=O)O)c(O)c3)cc2C#N)cc1 [Example 316]
,6.8 nM,Cc1ccc(-c2cn(-c3ccc(C(=O)O)c(O)c3)cc2C#N)cc1 [Example 317]
,17 nM,N#Cc1cn(-c2ccc(C(=O)O)c(O)c2)cc1-c1ccc(C(F)(F)F)cc1 [Example 318]
,8.1 nM,N#Cc1cn(-c2ccc(C(=O)O)c(O)c2)cc1-c1ccccc1F [Example 319]
,10.6 nM,N#Cc1cn(-c2ccc(C(=O)O)c(O)c2)cc1-c1ccc(F)cc1 [Example 320]
,10.9 nM,N#Cc1cn(-c2ccc(C(=O)O)c(O)c2)cc1-c1ccc2c(c1)OCO2 [Example 321]
,6.5 nM,N#Cc1cn(-c2ccc(C(=O)O)c(O)c2)cc1-c1cccc2c1OCO2 [Example 322]
,13.1 nM,N#Cc1cn(-c2ccc(C(=O)O)c(O)c2)cc1-c1cccc2ccccc12 [Example 325]
